Laboratory results as given in PMC6755814, “Crystal structure of the first eukaryotic bilin reductase GtPEBB reveals a flipped binding mode of dihydrobiliverdin” (The Journal of Biological Chemistry, 2019).

Columns and labels:
[1] = target: T1, mGtPEBB (Guillardia theta, UniProt L1IWQ9, R298S); test: UV/Vis spectral shift; anaerobic reductase assay with HPLC; format: binding; settings: pH 7.5, ferredoxin from Synechococcus sp. PCC7002, NADPH regenerating system
T1 construct: gene GUITHDRAFT_96430; GST fusion in E. coli, cut by TEV protease, leaving N-terminal Gly-Gly; single-domain protein; codon-optimized gene
T1 sequence (L1IWQ9 entry or part of it R298S): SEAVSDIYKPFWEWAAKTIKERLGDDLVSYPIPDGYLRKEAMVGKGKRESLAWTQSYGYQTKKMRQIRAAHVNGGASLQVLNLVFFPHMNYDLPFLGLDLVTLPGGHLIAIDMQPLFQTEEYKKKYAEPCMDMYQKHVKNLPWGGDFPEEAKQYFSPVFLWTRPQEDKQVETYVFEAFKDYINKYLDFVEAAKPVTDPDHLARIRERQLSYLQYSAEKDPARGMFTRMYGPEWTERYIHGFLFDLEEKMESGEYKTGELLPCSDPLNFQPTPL

[2] = target: T2, mGtPEBB (Guillardia theta, UniProt L1IWQ9, D182N); test: as above; format: binding; settings: pH 7.5, ferredoxin from Synechococcus sp. PCC7002, NADPH regenerating system
T2 construct: gene GUITHDRAFT_96430; GST fusion in E. coli, cut by TEV protease, leaving N-terminal Gly-Gly; single-domain protein; codon-optimized gene
T2 sequence (L1IWQ9 entry or part of it D182N): as the sequence (L1IWQ9 entry or part of it R298S) above, with D99N, S215R counted along it

[3] = target: T3, mGtPEBB (Guillardia theta, UniProt L1IWQ9, R298M); test: as above; format: binding; settings: pH 7.5, ferredoxin from Synechococcus sp. PCC7002, NADPH regenerating system
T3 construct: gene GUITHDRAFT_96430; GST fusion in E. coli, cut by TEV protease, leaving N-terminal Gly-Gly; single-domain protein; codon-optimized gene
T3 sequence (L1IWQ9 entry or part of it R298M): as the sequence (L1IWQ9 entry or part of it R298S) above, with S215M counted along it

[4] = target: T4, mGtPEBB (Guillardia theta, UniProt L1IWQ9, R298L); test: as above; format: binding; settings: pH 7.5, ferredoxin from Synechococcus sp. PCC7002, NADPH regenerating system
T4 construct: gene GUITHDRAFT_96430; GST fusion in E. coli, cut by TEV protease, leaving N-terminal Gly-Gly; single-domain protein; codon-optimized gene
T4 sequence (L1IWQ9 entry or part of it R298L): as the sequence (L1IWQ9 entry or part of it R298S) above, with S215L counted along it

[5] = target: T5, mGtPEBB (Guillardia theta, UniProt L1IWQ9); test: X-ray crystal structure of complex, […] Å; UV/Vis spectral shift; anaerobic reductase assay with HPLC; format: binding; settings: co-crystal at pH 8.5; assay pH 7.5 with ferredoxin from Synechococcus sp. PCC7002, NADPH regenerating system; active site, flipped orientation
T5 construct: gene GUITHDRAFT_96430; GST fusion in E. coli, cut by TEV protease, leaving N-terminal Gly-Gly; single-domain protein; codon-optimized gene
T5 sequence (L1IWQ9 84-356): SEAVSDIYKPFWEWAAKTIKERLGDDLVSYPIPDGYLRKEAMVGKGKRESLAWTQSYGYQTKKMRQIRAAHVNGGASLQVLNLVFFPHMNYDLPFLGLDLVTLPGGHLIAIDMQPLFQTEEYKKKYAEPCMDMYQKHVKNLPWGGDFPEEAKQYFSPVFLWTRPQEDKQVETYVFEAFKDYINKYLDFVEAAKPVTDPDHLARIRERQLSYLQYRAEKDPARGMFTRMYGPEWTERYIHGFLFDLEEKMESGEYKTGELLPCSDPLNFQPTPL

[6] = target: T6, mGtPEBB (Guillardia theta, UniProt L1IWQ9, R298A); test: UV/Vis spectral shift; anaerobic reductase assay with HPLC; format: biochemical; settings: pH 7.5, ferredoxin from Synechococcus sp. PCC7002, NADPH regenerating system; trace conversion only
T6 construct: gene GUITHDRAFT_96430; GST fusion in E. coli, cut by TEV protease, leaving N-terminal Gly-Gly; single-domain protein; codon-optimized gene
T6 sequence (L1IWQ9 entry or part of it R298A): as the sequence (L1IWQ9 entry or part of it R298S) above, with S215A counted along it

[7] = target: T7, mGtPEBB (Guillardia theta, UniProt L1IWQ9, R298K); test: as above; format: biochemical; settings: pH 7.5, ferredoxin from Synechococcus sp. PCC7002, NADPH regenerating system
T7 construct: gene GUITHDRAFT_96430; GST fusion in E. coli, cut by TEV protease, leaving N-terminal Gly-Gly; single-domain protein; codon-optimized gene
T7 sequence (L1IWQ9 entry or part of it R298K): as the sequence (L1IWQ9 entry or part of it R298S) above, with S215K counted along it

[8] = target: T8, mGtPEBB (Guillardia theta, UniProt L1IWQ9, D302N); test: as above; format: binding; settings: pH 7.5, ferredoxin from Synechococcus sp. PCC7002, NADPH regenerating system
T8 construct: gene GUITHDRAFT_96430; GST fusion in E. coli, cut by TEV protease, leaving N-terminal Gly-Gly; single-domain protein; codon-optimized gene
T8 sequence (L1IWQ9 entry or part of it D302N): as the sequence (L1IWQ9 entry or part of it R298S) above, with S215R, D219N counted along it

[9] = target: T3, mGtPEBB; test: as above; format: biochemical; settings: pH 7.5, ferredoxin from Synechococcus sp. PCC7002, NADPH regenerating system; product DHBV, low efficiency
[10] = target: T5, mGtPEBB; test: UV/Vis spectral shift; HPLC of products; format: binding; settings: pH 7.5, 10 μM protein, 10 μM bilin; unnatural ligand, not reduced

Compound	UV/Vis spectral shift; anaerobic reductase assay with HPLC [1]	UV/Vis spectral shift; anaerobic reductase assay with HPLC [2]	UV/Vis spectral shift; anaerobic reductase assay with HPLC [3]	UV/Vis spectral shift; anaerobic reductase assay with HPLC [4]	X-ray crystal structure of complex, 1.65 Å; UV/Vis spectral shift; anaerobic red [5]	UV/Vis spectral shift; anaerobic reductase assay with HPLC [6]	UV/Vis spectral shift; anaerobic reductase assay with HPLC [7]	UV/Vis spectral shift; anaerobic reductase assay with HPLC [8]	UV/Vis spectral shift; anaerobic reductase assay with HPLC [9]	UV/Vis spectral shift; HPLC of products [10]
C=CC1=C(C)C(=O)NC1=CC1=NC(=Cc2[nH]c(CC3NC(=O)C(C=C)=C3C)c(C)c2CCC(=O)O)C(CCC(=O)O)=C1C (stereo not shown) [DHBV]	both R215S and R215M showed binding spectra similar to WT	caused a blue shift of the maximum of the DHBV-binding spectrum	both R215S and R215M showed binding spectra similar to WT	the binding spectrum of R215L was very similar to the WT spectrum	Both chains showed clear density for DHBV already after molecular replacement	only trace amounts of PEB were detected for R215A	Replacing Arg-215 with lysine maintained side chain charge and size to some extent	caused a blue shift of the maximum of the DHBV-binding spectrum	–	–
C=CC1=C(C)C(=Cc2[nH]c(C=C3N=C(C=C4NC(=O)C(C)=C4C=C)C(C)=C3CCC(=O)O)c(CCC(=O)O)c2C)NC1=O [BV]	–	–	–	–	–	–	–	–	R215M was able to convert BV to DHBV	indicated binding of this unnatural substrate
